Assay results: patent US10004701B2, “Methods and compositions for treating infection” (UNIVERSITY OF ROCHESTER, priority 2012, dated 2018)
Structures can show the parent of a compound that is named as a salt. Where two headings read alike, the source gives them in different places.

Experiments:
Test in all cases: AK assay 384-well format, Prestwick library screening
[1] = system: E. coli; format: cell-based, Escherichia coli; details: for fold induction at 50 µM: Escherichia coli, 3 h
[2] = system: A. baumannii strain 98-37-09; format: cell-based, Acinetobacter baumannii; details: for fold induction at 50 µM: Acinetobacter baumannii, 983709, 3 h
[3] = system: E. cloacae; format: cell-based, Enterobacter cloacae; details: for fold induction at 50 µM: Enterobacter cloacae, 3 h
[4] = system: P. aeruginosa; format: cell-based, Pseudomonas aeruginosa; details: for fold induction at 50 µM: Pseudomonas aeruginosa, 3 h
[5] = system: K. pneumoniae; format: cell-based, Klebsiella pneumoniae; details: for fold induction at 50 µM: Klebsiella pneumoniae, 3 h
[6] = system: S. aureus strain USA300-0114; format: cell-based, Staphylococcus aureus; details: for fold induction at 50 µM: Staphylococcus aureus, USA300, 3 h
[7] = system: E. faecium; format: cell-based, Enterococcus faecium; details: for fold induction at 50 µM: Enterococcus faecium, 3 h
[8] = 50 μM final drug concentration, 384-well format, cutoff for positive-scoring molecules 3-fold increase, read-out: AK-based Prestwick Library Screening Results, E. coli (increase in extracellular AK activity)
[9] = 50 μM final drug concentration, 384-well format, cutoff for positive-scoring molecules 3-fold increase, read-out: AK-based Prestwick Library Screening Results, A. baumannii (increase in extracellular AK activity)
[10] = 50 μM final drug concentration, 384-well format, cutoff for positive-scoring molecules 3-fold increase, read-out: AK-based Prestwick Library Screening Results, E. cloacae (increase in extracellular AK activity)
[11] = 50 μM final drug concentration, 384-well format, cutoff for positive-scoring molecules 3-fold increase, read-out: AK-based Prestwick Library Screening Results, P. aeruginosa (increase in extracellular AK activity)
[12] = 50 μM final drug concentration, 384-well format, cutoff for positive-scoring molecules 3-fold increase, read-out: AK-based Prestwick Library Screening Results, K. pneumoniae (increase in extracellular AK activity)
[13] = 50 μM final drug concentration, 384-well format, cutoff for positive-scoring molecules 3-fold increase, read-out: AK-based Prestwick Library Screening Results, S. aureus (increase in extracellular AK activity)
[14] = 50 μM final drug concentration, 384-well format, cutoff for positive-scoring molecules 3-fold increase, read-out: AK-based Prestwick Library Screening Results, E. faecium (increase in extracellular AK activity)

CCN1CCCC(OC(=O)C(c2ccccc2)c2ccccc2)C1 (stereo not shown) [Piperidolate hydrochloride]
fold induction at 50 µM ([1]; planktonic E. coli, 50 μM final drug concentration, positive cutoff 3-fold increase, read-out: AK-based Prestwick library screening result, E. coli (fold increase in extracellular AK activity)): 0.7 | fold induction at 50 µM ([2]; read-out: AK-based Prestwick library screening result, A. baumannii (fold increase in extracellular AK activity)): 0.6 | fold induction at 50 µM ([3]; read-out: AK-based Prestwick library screening result, E. cloacae (fold increase in extracellular AK activity)): 0.7 | fold induction at 50 µM ([4]; read-out: AK-based Prestwick library screening result, P. aeruginosa (fold increase in extracellular AK activity)): 0.7 | fold induction at 50 µM ([5]; read-out: AK-based Prestwick library screening result, K. pneumoniae (fold increase in extracellular AK activity)): 0.6 | fold induction at 50 µM ([6]; read-out: AK-based Prestwick library screening result, S. aureus (fold increase in extracellular AK activity)): 0.6 | fold induction at 50 µM ([7]; read-out: AK-based Prestwick library screening result, E. faecium (fold increase in extracellular AK activity)): 1

CCCCc1cc2ccccc2c(OCCN(C)C)n1 [Dimethisoquin hydrochloride]
fold induction at 50 µM ([1]; 50 μM final drug concentration, planktonic, cutoff for positive 3-fold increase, read-out: AK-based Prestwick Library Screening Results, E. coli (fold increase in extracellular AK activity)): 1.3 | fold induction at 50 µM ([2]; 50 μM final drug concentration, planktonic, cutoff for positive 3-fold increase, read-out: AK-based Prestwick Library Screening Results, A. baumannii (fold increase in extracellular AK activity)): 1.5 | fold induction at 50 µM ([3]; 50 μM final drug concentration, planktonic, cutoff for positive 3-fold increase, read-out: AK-based Prestwick Library Screening Results, E. cloacae (fold increase in extracellular AK activity)): 1.5 | fold induction at 50 µM ([4]; 50 μM final drug concentration, planktonic, cutoff for positive 3-fold increase, read-out: AK-based Prestwick Library Screening Results, P. aeruginosa (fold increase in extracellular AK activity)): 1.2 | fold induction at 50 µM ([5]; 50 μM final drug concentration, planktonic, cutoff for positive 3-fold increase, read-out: AK-based Prestwick Library Screening Results, K. pneumoniae (fold increase in extracellular AK activity)): 1.2 | fold induction at 50 µM ([6]; 50 μM final drug concentration, planktonic, cutoff for positive 3-fold increase, read-out: AK-based Prestwick Library Screening Results, S. aureus (fold increase in extracellular AK activity)): 1.3 | fold induction at 50 µM ([7]; 50 μM final drug concentration, planktonic, cutoff for positive 3-fold increase, read-out: AK-based Prestwick Library Screening Results, E. faecium (fold increase in extracellular AK activity)): 1

c1ccc2c(c1)CCCC2C1=NCCN1 (stereo not shown) [Tetrahydrozoline hydrochloride]
fold induction at 50 µM ([1]; 50 μM final drug concentration, cutoff for positive-scoring molecules 3-fold increase, read-out: AK-based Prestwick Library Screening Results, E. coli (fold increase in extracellular AK activity)): 1.4 | fold induction at 50 µM ([2]; 50 μM final drug concentration, cutoff for positive-scoring molecules 3-fold increase, read-out: AK-based Prestwick Library Screening Results, A. baumannii (fold increase in extracellular AK activity)): 1 | fold induction at 50 µM ([3]; 50 μM final drug concentration, cutoff for positive-scoring molecules 3-fold increase, read-out: AK-based Prestwick Library Screening Results, E. cloacae (fold increase in extracellular AK activity)): 1.4 | fold induction at 50 µM ([4]; 50 μM final drug concentration, cutoff for positive-scoring molecules 3-fold increase, read-out: AK-based Prestwick Library Screening Results, P. aeruginosa (fold increase in extracellular AK activity)): 1 | fold induction at 50 µM ([5]; 50 μM final drug concentration, cutoff for positive-scoring molecules 3-fold increase, read-out: AK-based Prestwick Library Screening Results, K. pneumoniae (fold increase in extracellular AK activity)): 0.9 | fold induction at 50 µM ([6]; 50 μM final drug concentration, cutoff for positive-scoring molecules 3-fold increase, read-out: AK-based Prestwick Library Screening Results, S. aureus (fold increase in extracellular AK activity)): 1.1 | fold induction at 50 µM ([7]; 50 μM final drug concentration, cutoff for positive-scoring molecules 3-fold increase, read-out: AK-based Prestwick Library Screening Results, E. faecium (fold increase in extracellular AK activity)): 1

CCN(CC)CCOC(=O)c1ccc(N)cc1 [Procaine hydrochloride]
fold induction at 50 µM [1, 8]: 1.2 | fold induction at 50 µM [2, 9]: 1.1 | fold induction at 50 µM [3, 10]: 1.4 | fold induction at 50 µM [4, 11]: 1 | fold induction at 50 µM [5, 12]: 1 | fold induction at 50 µM [6, 13]: 1.2 | fold induction at 50 µM [7, 14]: 0.9

Viomycin sulfate
AK-based Prestwick library screening result, E. coli (fold increase in extracellular AK activity) ([1]; planktonic E. coli, 50 μM final drug concentration, […]): 1.0 | AK-based Prestwick library screening result, A. baumannii (fold increase in extracellular AK activity) ([2]; planktonic A. baumannii, 50 μM final drug concentration, […]): 1.1 | AK-based Prestwick library screening result, E. cloacae (fold increase in extracellular AK activity) ([3]; planktonic E. cloacae, 50 μM final drug concentration, […]): 1.6 | AK-based Prestwick library screening result, P. aeruginosa (fold increase in extracellular AK activity) ([4]; planktonic P. aeruginosa, 50 μM final drug concentration, […]): 0.9 | AK-based Prestwick library screening result, K. pneumoniae (fold increase in extracellular AK activity) ([5]; planktonic K. pneumoniae, 50 μM final drug concentration, […]): 0.9 | AK-based Prestwick library screening result, S. aureus (fold increase in extracellular AK activity) ([6]; planktonic S. aureus, 50 μM final drug concentration, […]): 1.3 | AK-based Prestwick library screening result, E. faecium (fold increase in extracellular AK activity) ([7]; planktonic E. faecium, 50 μM final drug concentration, […]): 1.0

C[C@]12CCC(=O)C=C1CC[C@@H]1[C@@H]2[C@@H](O)C[C@@]2(C)[C@H]1CC[C@]2(O)C(=O)CO [Hydrocortisone base]
AK-based Prestwick Library Screening Results, E. coli (increase in extracellular AK activity) ([1]; planktonic E. coli, 50 μM final drug concentration, cutoff for positive-scoring molecules 3-fold increase): 1.1 | AK-based Prestwick Library Screening Results, A. baumannii (increase in extracellular AK activity) ([2]; planktonic A. baumannii, 50 μM final drug concentration, cutoff for positive-scoring molecules 3-fold increase): 1.3 | AK-based Prestwick Library Screening Results, E. cloacae (increase in extracellular AK activity) ([3]; planktonic E. cloacae, 50 μM final drug concentration, cutoff for positive-scoring molecules 3-fold increase): 1.4 | AK-based Prestwick Library Screening Results, P. aeruginosa (increase in extracellular AK activity) ([4]; planktonic P. aeruginosa, 50 μM final drug concentration, cutoff for positive-scoring molecules 3-fold increase): 1.1 | AK-based Prestwick Library Screening Results, K. pneumoniae (increase in extracellular AK activity) ([5]; planktonic K. pneumoniae, 50 μM final drug concentration, cutoff for positive-scoring molecules 3-fold increase): 0.9 | AK-based Prestwick Library Screening Results, S. aureus (increase in extracellular AK activity) ([6]; planktonic S. aureus, 50 μM final drug concentration, cutoff for positive-scoring molecules 3-fold increase): 1.3 | AK-based Prestwick Library Screening Results, E. faecium (increase in extracellular AK activity) ([7]; planktonic E. faecium, 50 μM final drug concentration, cutoff for positive-scoring molecules 3-fold increase): 1.0

Cc1cccc(C)c1OCC(C)N (stereo not shown) [Mexiletine hydrochloride]
fold induction at 50 µM [1, 8]: 0.6 | fold induction at 50 µM [2, 9]: 0.5 | fold induction at 50 µM [3, 10]: 0.7 | fold induction at 50 µM [4, 11]: 0.7 | fold induction at 50 µM [5, 12]: 0.6 | fold induction at 50 µM [6, 13]: 0.7 | fold induction at 50 µM [7, 14]: 0.9

c1ccc([C@H]2CN3CCSC3=N2)cc1 [Levamisole hydrochloride]
fold induction at 50 µM [1, 8]: 1 | fold induction at 50 µM [2, 9]: 1.1 | fold induction at 50 µM [3, 10]: 1 | fold induction at 50 µM [4, 11]: 1 | fold induction at 50 µM [5, 12]: 0.7 | fold induction at 50 µM [6, 13]: 0.9 | fold induction at 50 µM [7, 14]: 1

CC(C)NC[C@@H](O)COc1cccc2ccccc12.Cl [(R)-Propranolol hydrochloride]
AK-based Prestwick library screening result, E. coli (fold increase in extracellular AK activity) ([1]; planktonic E. coli, 50 μM final drug concentration, positive cutoff 3-fold increase): 0.8 | AK-based Prestwick library screening result, A. baumannii (fold increase in extracellular AK activity) ([2]; planktonic A. baumannii, 50 μM final drug concentration, positive cutoff 3-fold increase): 0.9 | AK-based Prestwick library screening result, E. cloacae (fold increase in extracellular AK activity) ([3]; planktonic E. cloacae, 50 μM final drug concentration, positive cutoff 3-fold increase): 17.3 | AK-based Prestwick library screening result, P. aeruginosa (fold increase in extracellular AK activity) ([4]; planktonic P. aeruginosa, 50 μM final drug concentration, positive cutoff 3-fold increase): 0.8 | AK-based Prestwick library screening result, K. pneumoniae (fold increase in extracellular AK activity) ([5]; planktonic K. pneumoniae, 50 μM final drug concentration, positive cutoff 3-fold increase): 0.7 | AK-based Prestwick library screening result, S. aureus (fold increase in extracellular AK activity) ([6]; planktonic S. aureus, 50 μM final drug concentration, positive cutoff 3-fold increase): 0.8 | AK-based Prestwick library screening result, E. faecium (fold increase in extracellular AK activity) ([7]; planktonic E. faecium, 50 μM final drug concentration, positive cutoff 3-fold increase): 0.9

CCC(C)(C)C(=O)O[C@H]1C[C@@H](C)C=C2C=C[C@H](C)[C@H](CC[C@@H]3C[C@@H](O)CC(=O)O3)[C@H]21 [Simvastatin]
fold induction at 50 µM ([1]; read-out: AK-based Prestwick Library Screening Results, E. coli (fold increase in extracellular AK activity)): 1.6 | fold induction at 50 µM ([2]; read-out: AK-based Prestwick Library Screening Results, A. baumannii (fold increase in extracellular AK activity)): 2.5 | fold induction at 50 µM ([3]; read-out: AK-based Prestwick Library Screening Results, E. cloacae (fold increase in extracellular AK activity)): 1.5 | fold induction at 50 µM ([4]; read-out: AK-based Prestwick Library Screening Results, P. aeruginosa (fold increase in extracellular AK activity)): 1.1 | fold induction at 50 µM ([5]; read-out: AK-based Prestwick Library Screening Results, K. pneumoniae (fold increase in extracellular AK activity)): 1.2 | fold induction at 50 µM ([6]; read-out: AK-based Prestwick Library Screening Results, S. aureus (fold increase in extracellular AK activity)): 0.4 | fold induction at 50 µM ([7]; read-out: AK-based Prestwick Library Screening Results, E. faecium (fold increase in extracellular AK activity)): 1
